No end group written: not given here.

Data on two substances can be found in PMC3785825 (Journal of the Royal Society Interface, 2013).

One test deals with CGRP receptor. The following applies: AM at the CGRP receptor versus CGRP; cited from earlier work.
Test [1] has as its system CLR L290A/RAMP1 (CGRP receptor). Description: AM-stimulated cAMP (alphascreen), L290A mutant. The following applies: Cos 7 cells. The class given is cell-based, human. The source says: (§1) Curve fitting was done with […]
(§2) To explore the effects of the above mutants further, their ability to respond to AM through cAMP production was subsequently investigated. […] There was especially good agreement between the two agonists for the central area of functional importance ranging from D280 to T288. […] The effect of mutations at the N- and C-termini of ECL2 was more variable between the two peptides.
Background: Bead proximity is the source of the signal in Alpha formats.

The test system of test [2] is CLR W283A/RAMP1 (CGRP receptor). The test can be described thus: AM-stimulated cAMP (alphascreen), W283A mutant. The test is classed as cell-based, human.
Text: as §1, §2

The subject of test [3] is CLR S285A/RAMP1 (CGRP receptor). Description: AM-stimulated cAMP (alphascreen), S285A mutant. The test is classed as cell-based, human. The following applies: residue S285; effect of alanine mutation on AM.
Text: as §1, §2

Test [4] concerns CLR Y277A/RAMP1 (CGRP receptor). Description: AM-stimulated cAMP (alphascreen), Y277A mutant. The test is classed as cell-based, human. The following applies: Cos 7 cells.
Text: as §1, §2

For test [5], the system named is CLR Y278A/RAMP1 (CGRP receptor). The test can be described thus: AM-stimulated cAMP (alphascreen), Y278A mutant. The class given is cell-based, human. The conditions noted are these: Cos 7 cells.
Text: as §1, §2

The subject of test [6] is CLR R274A/RAMP1 (CGRP receptor). Description: AM-stimulated cAMP (alphascreen), R274A mutant. The test is classed as cell-based, human.
Text: as §1, §2

For test [7], the system named is CLR I284A/RAMP1 (CGRP receptor). The test can be described thus: AM-stimulated cAMP (alphascreen), I284A mutant. The following applies: residue I284; effect of alanine mutation on AM. The test is classed as cell-based, human.
Text: as §1, §2

For test [8], the system named is CLR A273L/RAMP1 (CGRP receptor). Description: AM-stimulated cAMP (alphascreen), A273L mutant. The test is classed as cell-based, human. The conditions noted are these: residue A273 (mutated to leucine); effect of mutation on AM.
Text: as §1, §2

The subject of test [9] is CLR L291A/RAMP1 (CGRP receptor). The test can be described thus: AM-stimulated cAMP (alphascreen), L291A mutant. The class given is cell-based, human. The conditions noted are these: Cos 7 cells.
Text: as §1, §2

In test [10] the test system is CLR D280A/RAMP1 (CGRP receptor). Description: AM-stimulated cAMP (alphascreen), D280A mutant. The test is classed as cell-based, human.
Text: as §1, §2

Test [11] relates to CLR T288A/RAMP1 (CGRP receptor). Description: AM-stimulated cAMP (alphascreen), T288A mutant. The test is classed as cell-based, human. The following applies: residue T288; effect of alanine mutation on AM.
Text: as §1, §2

For test [12], the system named is CLR ECL2 mutants with human RAMP1. Description: AM-stimulated cAMP (alphascreen), ECL2 alanine scan. The test is classed as cell-based. The following applies: some mutants (not given); Cos 7 cells.
Text: as §1, §2

In another test the test system is CGRP receptors. The conditions noted are these: double alanine mutant R^11AR^18A; cited from earlier work. The source says: The loop conformations spanned a large proportion of the space available to ECL2 (figure 4a). […] ECL2 forms an extended loop; this conformation is often seen as two antiparallel beta-strands in all peptide GPCRs for which structures are available, creating a large interface for peptide–receptor contacts. Here, we re-interpret seve ...

For adrenomedullin [AM], the “affinity, folds less than that for CGRP” value in the test with CGRP receptor is recorded as “approximately 10 folds”. Moreover, the “potency versus WT” value in [1] and in [9] was “not significantly affected” each time. The “cAMP response / Emax” value was “so low that an Emax could not be reliably determined” in test [2] (W283A, Cos 7 cells); “so low that an Emax could not be reliably determined” in test [6] (R274A, Cos 7 cells); “so low that an Emax could not be reliably determined” in [10] (D280A, Cos 7 cells). Also, the AM effect result is recorded as “√” in test [2] (residue W283, effect of alanine mutation on AM); “√” in [3]; “√” in test [6] (residue R274, effect of alanine mutation on AM); “√” in [7]; “√” in [8]; “√” in [10] (residue D280, effect of alanine mutation on AM). Moreover, the AM effect result in test [11] is on record as “√”. Further, the “effect on pEC50” value in test [4] and in [5] was “did not show AM-mediated effects on pEC50” in each case. For the same substance, the “reduction in maximal cAMP response” value in [4] and in [5] was “approximately 25%” each time. The “activation of the receptor” value in [12] is “impossible to measure any activation of the receptor”.
For the substance “R^11AR^18A: double alanine mutant of CGRP, literature (ACDTATCVTHALAGLLSASGGVVKNNFVPTNVGSKAF; not fully specified; ends and bridges not checked; UniProt P06881 83-119, looked up, variant R11A R18A)”, the reduction in affinity with CGRP receptors was 100 fold.
